Measured values from the NIST ThermoML archive (doi:10.1021/je2010038).

Assays:
[1] = xn = mol fraction of the nth substance listed; conditions: x2 = 0; for surface tension liquid-gas: Pendant drop shape; for mass density: Liquid, Vibrating tube method
[2] = for mass density: Liquid, Vibrating tube method; for surface tension liquid-gas: Pendant drop shape

O [water] + NCCO
[1]
Conditions | surface tension liquid-gas [mN/m]
303.15 K | 71.3
313.15 K | 69.55
323.15 K | 67.98
333.15 K | 66.16

[1]
Conditions | mass density [kg/m3]
323.15 K, 101 kPa | 988
328.15 K, 101 kPa | 985.7
333.15 K, 101 kPa | 983.2
338.15 K, 101 kPa | 980.5
343.15 K, 101 kPa | 977.7
348.15 K, 101 kPa | 974.8
353.15 K, 101 kPa | 971.8
358.15 K, 101 kPa | 968.6
363.15 K, 101 kPa | 965.3
373.1 K, 700 kPa | 958.6
383.15 K, 700 kPa | 951.2
393.15 K, 700 kPa | 943.4
403.15 K, 700 kPa | 935.1
413.15 K, 700 kPa | 926.3
423.15 K, 700 kPa | 917.1

NCCO [2-aminoethan-1-ol]
[2]
Conditions | mass density [kg/m3]
298.15 K, 101 kPa | 1011.9
303.15 K, 101 kPa | 1008
308.15 K, 101 kPa | 1004
313.15 K, 101 kPa | 1000
318.15 K, 101 kPa | 996
323.15 K, 101 kPa | 992
328.15 K, 101 kPa | 988
333.15 K, 101 kPa | 983.9
338.15 K, 101 kPa | 979.8
343.15 K, 101 kPa | 975.8
348.15 K, 101 kPa | 971.6
353.15 K, 101 kPa | 967.5
358.15 K, 101 kPa | 963.4
363.15 K, 101 kPa | 959.2
373.1 K, 700 kPa | 950.9
383.15 K, 700 kPa | 942.3
393.15 K, 700 kPa | 933.5
403.15 K, 700 kPa | 924.7
413.15 K, 700 kPa | 915.7
423.15 K, 700 kPa | 906.4

[2]
Conditions | surface tension liquid-gas [mN/m]
303.15 K | 48.13
313.15 K | 46.66
323.15 K | 45.58
333.15 K | 44.63
